Data reported in PMC12503912 (Chemmedchem, 2025).
*1 amine or outer side, *2 acyl side, *3 side chain or, on linkers, in order; H or OH if unused. Where a SMILES comes first, the peptide text is derived from it. [ ]: non-standard residue; d: D form. The star is where a group is joined. N(CH2CH2CO)Gly = O=C(CN(CCC(=O)[*:3])[*:1])[*:2]; NMe2Val = CC(C)[C@@H](C(=O)*)N(C)C; NHhexadecyl = CCCCCCCCCCCCCCCCN*; X1 = O=C(CN(Cc1cncs1)[*:1])[*:2]; NFurfurylGly = O=C(O)CNCc1ccco1; NMe(benzyl) = CN(Cc1ccccc1)*; NMeV = CN[C@H](C(=O)O)C(C)C; X2 = O=C(NCCCCN*)OCc1ccccc1; Nphe = O=C(O)CNCc1ccccc1; NHcHex = C1CCC(N*)CC1; NHBn = c1ccc(CN*)cc1; NHHex = CCCCCCN*; NHBu = CCCCN*

Columns and labels:
HCT-116 cells = settings: 48 h
Description: (§1) The anticancer activity of the dolastatin 15 analogs 5a‐i was tested in comparison with cemadotin and the N‐methylated cemadotin derivative 5j against three human cancer cell lines, namely prostate adenocarcinoma PC‐3 cells, colorectal carcinoma HCT‐116 cells, and triple‐negative breast cancer MDA‐MB‐468 cells. In vitro cell viability and cytotoxicity assays were conducted and IC50 curves, and values were determined using the resazurin assay and fluorometric read‐out after 48 h cells’ treatment with the compounds in concentrations covering the micro‐ and nanomolar range (Figure S83, Supporting Information, SI).
(§2) Material and methods for cell-based assays
(§3) Human cell culture materials and cultivation methodology
(§4) The in vitro cell viability and cytotoxicity assays were performed with the human prostate cancer cell line PC-3, the human colorectal cancer cell line HCT-116 and the human triple-negative breast cancer cell line MDA-MB-468; the fluorescence microscopic inspections just with PC-3 cells. The cell lines were obtained from DSMZ (Braunschweig, Germany) and ATCC (Manassas, VA, USA) and cultivated in their specific growth medium. PC-3 cells were cultivated in RPMI 1640 supplemented with 1% (v/v) glutamine, and 10% (v/v) he at-inactivated fetal calf serum (FCS); HCT-116 was cultured in McCoy’s 5a Modified Medium supplemented with 10% (v/v) heat-inactivated FCS; and for MDA-MB-468, DMEM high glucose (4.5 g/L) supplemented with 10% (v/v) heat-inactivated FCS was used.
(§5) All the basal culture media and supplements, like glutamine and FCS, PBS and 0.05% trypsin-EDTA for cell detachment were purchased from Capricorn Scientific GmbH (Ebsdorfergrund, Germany). Cell culture plastics were used from TPP (Trasadingen, Switzerland), Greiner Bio-One (Frickenhausen, Germany) and Sarstedt (Nürnbrecht, Germany). Digitonin was purchased from Riedel De Haën (Seelze, Germany) and DMSO from Duchefa Biochemie (Haarlem, The Netherlands). Resazurin was used from Sigma-Aldrich Chemie GmbH (Taufkirchen, Germany). The tubulin-specific dye reagent SiR-tubulin kit (SC002) and verapamil were purchased from Spirochrome AG (Stein am Rhein, Switzerland), the nuclei stain H33342 was from Thermo Fisher Scientific (Waltham, MA, USA).
(§6) Cultivation was routinely done in T-75 flasks in a humidified atmosphere with 5% CO2 at 37 °C until subconfluency (~ 70-80%) was reached, and the cells were ready for subsequent sub-culturing or assay usage. For that, the adherent cells were rinsed with PBS and detached with trypsin/EDTA (0.05% in PBS) prior to cell passaging and seeding.
(§7) Cell viability assay - methodology
(§8) The impacts of the newly synthesized dolastatin derivatives analogs on the viability and proliferation of the three human cancer cell lines were investigated by performing fluorometric resazurin-based cell viability assays, following a protocol well established in our lab.[3,4] In 3 R. Kufka, R. Rennert, G. N. Kaluđerović, L. Weber, W. Richter, L. A. Wessjohann, Beilstein J. Org. Chem.
(§9) 4 Y. T. H. Lam, J. Hoppe, Q. N. Dang; A. Porzel, A. Soboleva, W. Brandt, R. Rennert, H. Hussain, M. D. Davari, […]
(§10) brief, the cells were seeded in low densities in 96-well plates (PC-3: 3.000 cells/well; HCT-116: 5.000 cells/well; MDA-MB-468: 10.000 cells/well) yielding a seeding confluency of ~ 10 – 20%, and were allowed to adhere overnight. Subsequently, the cells were treated for 48 h with dilutions series (25.6 pM – 10 µM in 5-fold dilutions) of the test compounds (1 mM DMSO stocks). For control measures, cells were treated in parallel with 1% DMSO (negative control, representing the final DMSO content of the highest concentrated sample point, for data normalization set to 100% cell viability) and 100 µM digitonin (positive control, for data normalization set to 0% cell viability). After finalization of the 48 h incubation, the incubation media were discarded, and cells were rinsed once with PBS. Resazurin solution in basal medium

MDA-MB-468 cells = settings: 48 h
Description: as §1, §2, §3, §4, §5, §6, §7, §8, §9, §10

PC-3 cells = settings: 48 h
Description: as §1, §2, §3, §4, §5, §6, §7, §8, §9, §10

[1] = test system: microtubule network in PC-3 cells
[2] = test system: PC-3, HCT-116 and MDA-MB-468 cells; settings: all cancer cells tested; resazurin, 48 h (Figure S84)
Description: as §10

Structure (SMILES): CCCCNC(=O)CN(Cc1ccccc1)C(=O)[C@@H]1CCCN1C(=O)[C@@H]1CCCN1C(=O)[C@H](C(C)C)N(C)C(=O)[C@@H](NC(=O)[C@H](C(C)C)N(C)C)C(C)C [Peptide 5a] (NMe2Val-V[NMeV]PP[Nphe]-NHBu)
- IC50 (HCT-116 cells): 2200 nM
- IC50 (MDA-MB-468 cells): 820 nM
- IC50 (PC-3 cells): 1500 nM
- effect on microtubule structure [1]: acts in the initial phase of microtubule network disruption

Structure (SMILES): CCCCCCNC(=O)CN(Cc1ccccc1)C(=O)[C@@H]1CCCN1C(=O)[C@@H]1CCCN1C(=O)[C@H](C(C)C)N(C)C(=O)[C@@H](NC(=O)[C@H](C(C)C)N(C)C)C(C)C [Peptide 5b] (NMe2Val-V[NMeV]PP[Nphe]-NHHex)
- IC50 (HCT-116 cells): 7200 nM
- IC50 (MDA-MB-468 cells): 2100 nM
- IC50 (PC-3 cells): ~5000 nM

Structure (SMILES): CC(C)[C@H](NC(=O)[C@H](C(C)C)N(C)C)C(=O)N(C)[C@H](C(=O)N1CCC[C@H]1C(=O)N1CCC[C@H]1C(=O)N(CC(=O)NCc1ccccc1)Cc1ccccc1)C(C)C [Peptide 5c] (NMe2Val-V[NMeV]PP[Nphe]-NHBn)
- IC50 (HCT-116 cells): 2300 nM
- IC50 (MDA-MB-468 cells): 1100 nM
- IC50 (PC-3 cells): 1900 nM

Structure (SMILES): CC(C)[C@H](NC(=O)[C@H](C(C)C)N(C)C)C(=O)N(C)[C@H](C(=O)N1CCC[C@H]1C(=O)N1CCC[C@H]1C(=O)N(CC(=O)NC1CCCCC1)Cc1ccccc1)C(C)C [Peptide 5d] (NMe2Val-V[NMeV]PP[Nphe]-NHcHex)
- IC50 (HCT-116 cells): 1900 nM
- IC50 (MDA-MB-468 cells): 1400 nM
- IC50 (PC-3 cells): 1200 nM

Structure (SMILES): CC(C)[C@H](NC(=O)[C@H](C(C)C)N(C)C)C(=O)N(C)[C@H](C(=O)N1CCC[C@H]1C(=O)N1CCC[C@H]1C(=O)N(CC(=O)NCCCCNC(=O)OCc1ccccc1)Cc1ccccc1)C(C)C [Peptide 5e] (NMe2Val-V[NMeV]PP[Nphe]-X2)
- IC50 (HCT-116 cells): 4300 nM
- IC50 (MDA-MB-468 cells): 1200 nM
- IC50 (PC-3 cells): 1600 nM

Structure (SMILES): CCCCCCCCCCCCCCCCNC(=O)CN(Cc1ccccc1)C(=O)[C@@H]1CCCN1C(=O)[C@@H]1CCCN1C(=O)[C@H](C(C)C)N(C)C(=O)[C@@H](NC(=O)[C@H](C(C)C)N(C)C)C(C)C [Peptide 5f] (NMe2Val-V[NMeV]PP[Nphe]-NHhexadecyl)
- IC50 (HCT-116 cells): 2700 nM
- IC50 (MDA-MB-468 cells): 2100 nM
- IC50 (PC-3 cells): 2100 nM

Structure (SMILES): CCCCNC(=O)CN(Cc1cncs1)C(=O)[C@@H]1CCCN1C(=O)[C@@H]1CCCN1C(=O)[C@H](C(C)C)N(C)C(=O)[C@@H](NC(=O)[C@H](C(C)C)N(C)C)C(C)C [Peptide 5h] (NMe2Val-V[NMeV]PP[X1]-NHBu)
- IC50 (HCT-116 cells): 50 nM
- IC50 (MDA-MB-468 cells): 24 nM
- IC50 (PC-3 cells): 30 nM
- cell and nuclear morphology after treatment [1]: enlarged and showed strongly fragmented nuclei
- effect on microtubule structure [1]: microtubule networks appear to be stabilized rather than destabilized

Structure (SMILES): CCCCNC(=O)CN(Cc1ccco1)C(=O)[C@@H]1CCCN1C(=O)[C@@H]1CCCN1C(=O)[C@H](C(C)C)N(C)C(=O)[C@@H](NC(=O)[C@H](C(C)C)N(C)C)C(C)C [Peptide 5i] (NMe2Val-V[NMeV]PP[NFurfurylGly]-NHBu)
- IC50 (HCT-116 cells): > 10000 nM
- IC50 (MDA-MB-468 cells): 1200 nM
- IC50 (PC-3 cells): 3700 nM

Structure (SMILES): CC(C)[C@H](NC(=O)[C@H](C(C)C)N(C)C)C(=O)N(C)[C@H](C(=O)N1CCC[C@H]1C(=O)N1CCC[C@H]1C(=O)N(C)Cc1ccccc1)C(C)C [Peptide 5j, N‐Methyl‐cemadotin] (NMe2Val-V[NMeV]PP-{NMe(benzyl)})
- IC50 (HCT-116 cells): > 10000 nM
- IC50 (MDA-MB-468 cells): > 10000 nM
- IC50 (PC-3 cells): > 10000 nM

Structure (SMILES): COc1ccc(CNC(=O)[C@H](CC(C)C)N(CC(=O)NCc2ccccc2)C(=O)[C@@H]2CCCN2C(=O)[C@H](C(C)C)N(C)C(=O)[C@@H](NC(=O)[C@H](C(C)C)N(C)C)C(C)C)cc1 [Peptide 11a]
- IC50 (HCT-116 cells): > 10000 nM
- IC50 (MDA-MB-468 cells): > 10000 nM
- IC50 (PC-3 cells): > 10000 nM

Structure (SMILES): CC(C)C[C@@H](C(=O)NCc1ccccc1)N(CC(=O)NC(C)(C)C)C(=O)[C@@H]1CCCN1C(=O)[C@H](C(C)C)N(C)C(=O)[C@@H](NC(=O)[C@H](C(C)C)N(C)C)C(C)C [Peptide 11b]
- IC50 (HCT-116 cells): > 10000 nM
- IC50 (MDA-MB-468 cells): > 10000 nM
- IC50 (PC-3 cells): > 10000 nM

Structure (SMILES): CCCCNC(=O)CN(C(=O)[C@@H]1CCCN1C(=O)[C@H](C(C)C)N(C)C(=O)[C@@H](NC(=O)[C@H](C(C)C)N(C)C)C(C)C)[C@@H](CC(C)C)C(=O)NCc1ccccc1 [Peptide 11c]
- IC50 (HCT-116 cells): 7900 nM
- IC50 (MDA-MB-468 cells): ~5000 nM
- IC50 (PC-3 cells): > 10000 nM

Structure (SMILES): CC(C)[C@H](NC(=O)[C@H](C(C)C)N(C)C)C(=O)N(C)[C@H](C(=O)N1CCC[C@H]1C(=O)N(CC(=O)NC1CCCCC1)[C@@H](Cc1ccccc1)C(=O)NCc1ccccc1)C(C)C [Peptide 11d]
- IC50 (HCT-116 cells): > 10000 nM
- IC50 (MDA-MB-468 cells): > 10000 nM
- IC50 (PC-3 cells): > 10000 nM

Structure (SMILES): CC(C)[C@H](NC(=O)[C@H](C(C)C)N(C)C)C(=O)N(C)[C@H](C(=O)N1CCC[C@H]1C(=O)N(CC(=O)NC1CCCCC1)[C@@H](Cc1ccccc1)C(=O)NCc1ccco1)C(C)C [Peptide 11e]
- IC50 (HCT-116 cells): > 10000 nM
- IC50 (MDA-MB-468 cells): > 10000 nM
- IC50 (PC-3 cells): 9300 nM

Structure (SMILES): CC(C)[C@H](NC(=O)[C@H](C(C)C)N(C)C)C(=O)N(C)[C@H](C(=O)N1CCC[C@H]1C(=O)N(CC(=O)NCc1ccccc1)[C@@H](Cc1ccccc1)C(=O)NCc1ccco1)C(C)C [Peptide 11f]
- IC50 (HCT-116 cells): > 10000 nM
- IC50 (MDA-MB-468 cells): > 10000 nM
- IC50 (PC-3 cells): > 10000 nM

Structure (SMILES): CCCCNC(=O)CN(C(=O)[C@@H]1CCCN1C(=O)[C@H](C(C)C)N(C)C(=O)[C@@H](NC(=O)[C@H](C(C)C)N(C)C)C(C)C)[C@@H](C)C(=O)NCc1ccc(OC)cc1 [Peptide 11g]
- IC50 (HCT-116 cells): > 10000 nM
- IC50 (MDA-MB-468 cells): > 10000 nM
- IC50 (PC-3 cells): > 10000 nM

Structure (SMILES): CCCCCCNC(=O)CN(C(=O)[C@@H]1CCCN1C(=O)[C@H](C(C)C)N(C)C(=O)[C@@H](NC(=O)[C@H](C(C)C)N(C)C)C(C)C)[C@@H](C)C(=O)NCc1ccccc1 [Peptide 11h]
- IC50 (PC-3 cells): > 10000 nM

Structure (SMILES): CCCCCCCCCCCCCCCCNC(=O)CCN(CC(=O)NC1CCCCC1)C(=O)[C@@H]1CCCN1C(=O)[C@H](C(C)C)N(C)C(=O)[C@@H](NC(=O)[C@H](C(C)C)N(C)C)C(C)C [Peptide 11i] (NMe2Val-V[NMeV]P[N(CH2CH2CO)Gly](NHhexadecyl)-NHcHex)
- IC50 (HCT-116 cells): 6400 nM
- IC50 (MDA-MB-468 cells): 3400 nM
- IC50 (PC-3 cells): 2300 nM
- cytotoxic profile [2]: inducing the death of all cancer cells tested

Structure (SMILES): CC(C)[C@H](NC(=O)[C@H](C(C)C)N(C)C)C(=O)N(C)[C@H](C(=O)N1CCC[C@H]1C(=O)N1CCC[C@H]1C(=O)NCc1ccccc1)C(C)C [cemadotin, reference compound] (NMe2Val-V[NMeV]PP-NHBn)
- IC50 (HCT-116 cells): 1 nM
- IC50 (MDA-MB-468 cells): 2.5 nM
- IC50 (PC-3 cells): 1.3 nM
